22 compounds from ChEMBL document CHEMBL5291721, “A preclinical secondary pharmacology resource illuminates target-adverse drug reaction associations of marketed drugs” (Nat Commun, 2023) can be followed below.

Experiment [1] addresses T1, Muscarinic acetylcholine receptor M1 (Homo sapiens, UniProt P11229).
T1 sequence (P11229 whole entry): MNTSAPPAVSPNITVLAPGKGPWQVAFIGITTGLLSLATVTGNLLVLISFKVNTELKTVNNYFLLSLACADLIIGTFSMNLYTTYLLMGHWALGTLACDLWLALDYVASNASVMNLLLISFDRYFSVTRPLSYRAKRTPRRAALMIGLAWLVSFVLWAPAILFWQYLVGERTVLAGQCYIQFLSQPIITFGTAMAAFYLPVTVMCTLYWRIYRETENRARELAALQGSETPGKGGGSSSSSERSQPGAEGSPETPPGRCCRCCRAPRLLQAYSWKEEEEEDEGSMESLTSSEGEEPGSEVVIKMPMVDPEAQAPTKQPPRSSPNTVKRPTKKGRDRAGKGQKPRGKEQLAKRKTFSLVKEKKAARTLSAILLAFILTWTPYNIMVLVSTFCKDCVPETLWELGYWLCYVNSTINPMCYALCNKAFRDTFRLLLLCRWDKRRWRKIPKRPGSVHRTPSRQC
Type of experiment: functional, cell-based.

The target in experiment [2] is T1, Muscarinic acetylcholine receptor M1. Type of experiment: functional, cell-based. The source holds these as a separate data set.
The target in experiment [3] is T2, Gamma-aminobutyric acid receptor subunit alpha-1 (Rattus norvegicus, UniProt P62813).
The target in experiment [4] is T2, Gamma-aminobutyric acid receptor subunit alpha-1. The source holds these as a separate data set.
Experiment [5] deals with Glutamate receptor ionotropic, NMDA 1 (Rattus norvegicus, UniProt P35439).
Experiment [6] concerns the target 5-hydroxytryptamine receptor 2B (Homo sapiens, UniProt P41595). Type of experiment: functional, cell-based.
Experiment [7] has as its target Delta-type opioid receptor (Homo sapiens, UniProt P41143).
In experiment [8] the target is T3, Amine oxidase [flavin-containing] A (Homo sapiens, UniProt P21397).
T3 sequence (P21397 whole entry): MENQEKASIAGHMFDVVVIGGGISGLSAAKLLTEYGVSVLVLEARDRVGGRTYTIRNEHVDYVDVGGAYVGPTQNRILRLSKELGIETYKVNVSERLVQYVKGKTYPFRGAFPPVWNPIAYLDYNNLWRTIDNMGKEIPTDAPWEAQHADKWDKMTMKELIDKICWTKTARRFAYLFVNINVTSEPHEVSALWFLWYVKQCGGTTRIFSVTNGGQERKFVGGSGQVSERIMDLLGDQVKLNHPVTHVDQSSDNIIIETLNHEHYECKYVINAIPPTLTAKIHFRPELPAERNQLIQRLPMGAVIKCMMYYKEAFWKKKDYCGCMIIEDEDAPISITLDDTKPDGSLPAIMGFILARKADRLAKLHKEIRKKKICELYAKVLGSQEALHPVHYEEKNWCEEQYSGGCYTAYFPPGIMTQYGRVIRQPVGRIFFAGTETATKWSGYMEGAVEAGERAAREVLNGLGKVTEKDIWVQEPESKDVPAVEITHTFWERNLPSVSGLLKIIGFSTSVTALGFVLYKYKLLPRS
Type of experiment: functional.

Usually AC50 stands for the midpoint of the concentration-response curve, whichever way the signal moves. A high value points to activity only at high concentration.
Also: assay procedure not described here.

T2 sequence (P62813 whole entry): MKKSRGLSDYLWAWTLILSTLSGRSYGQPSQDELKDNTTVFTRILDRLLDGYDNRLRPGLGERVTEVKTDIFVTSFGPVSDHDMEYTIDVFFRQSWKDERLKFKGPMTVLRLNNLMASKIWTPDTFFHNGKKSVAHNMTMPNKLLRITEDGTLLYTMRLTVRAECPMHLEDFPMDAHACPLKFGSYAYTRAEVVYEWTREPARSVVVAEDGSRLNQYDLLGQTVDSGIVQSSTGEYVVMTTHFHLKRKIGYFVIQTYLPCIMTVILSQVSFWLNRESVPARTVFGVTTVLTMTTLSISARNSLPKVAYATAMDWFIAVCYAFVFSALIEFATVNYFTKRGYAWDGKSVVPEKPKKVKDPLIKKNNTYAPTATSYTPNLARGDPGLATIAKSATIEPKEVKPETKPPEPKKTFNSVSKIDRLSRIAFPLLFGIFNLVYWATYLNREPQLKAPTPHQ
Sequence of 5-hydroxytryptamine receptor 2B (P41595 whole entry): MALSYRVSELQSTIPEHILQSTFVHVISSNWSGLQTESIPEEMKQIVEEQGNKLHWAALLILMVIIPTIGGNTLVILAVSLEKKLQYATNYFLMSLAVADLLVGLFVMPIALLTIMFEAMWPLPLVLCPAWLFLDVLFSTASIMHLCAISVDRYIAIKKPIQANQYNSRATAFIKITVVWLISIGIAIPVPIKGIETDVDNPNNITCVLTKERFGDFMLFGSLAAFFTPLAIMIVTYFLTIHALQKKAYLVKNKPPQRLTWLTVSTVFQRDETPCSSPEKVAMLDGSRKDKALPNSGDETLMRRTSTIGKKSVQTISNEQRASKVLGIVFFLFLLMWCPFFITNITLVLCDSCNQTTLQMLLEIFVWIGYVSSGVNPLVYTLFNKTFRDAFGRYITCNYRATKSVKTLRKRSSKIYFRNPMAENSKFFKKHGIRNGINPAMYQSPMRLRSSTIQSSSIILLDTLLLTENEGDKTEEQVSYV
Sequence of Delta-type opioid receptor (P41143 whole entry): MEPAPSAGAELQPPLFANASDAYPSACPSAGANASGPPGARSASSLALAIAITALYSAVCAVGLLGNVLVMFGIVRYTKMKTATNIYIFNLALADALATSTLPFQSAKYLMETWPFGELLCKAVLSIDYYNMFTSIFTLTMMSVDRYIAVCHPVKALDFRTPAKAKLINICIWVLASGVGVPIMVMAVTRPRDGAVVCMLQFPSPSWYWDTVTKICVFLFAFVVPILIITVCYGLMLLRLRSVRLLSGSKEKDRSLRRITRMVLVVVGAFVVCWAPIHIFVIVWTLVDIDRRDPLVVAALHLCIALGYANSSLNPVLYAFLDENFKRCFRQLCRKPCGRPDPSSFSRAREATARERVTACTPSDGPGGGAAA

As for `CNC(=O)C[C@@H](N)C(=O)N[C@@H](C(=O)N[C@@H]1C(=O)N2[C@@H]1SC(C)(C)[C@@H]2C(=O)O)c1ccc(O)cc1` [ASPOXICILLIN], the half-maximal activity concentration (AC50) in experiment [1], in experiment [2] and in experiment [3] was > 30 µM in each case.

Regarding `COC(=O)C1=C(C)NC(C)=C(C(=O)O[C@H]2CCN(Cc3ccccc3)C2)[C@H]1c1cccc([N+](=O)[O-])c1` [BARNIDIPINE], the half-maximal activity concentration (AC50) in experiment [1] is > 30 µM; in experiment [2], 4.07 µM; in experiment [3] it was > 30 µM.

Consider `C[C@@H](O)[C@H]1C(=O)N2C(C(=O)[O-])=C(SC3Cn4cnc[n+]4C3)[C@H](C)[C@H]12` (stereo partly specified) [BIAPENEM], for which the concentration at half-maximal activity (AC50) in experiment [1], in experiment [2] and in experiment [3] was > 30 µM throughout.

As to `CCCCOc1ccc(CC(=O)NO)cc1` [BUFEXAMAC], the half-maximal activity concentration (AC50) in experiment [1], in experiment [2] and in experiment [3] was > 30 µM in each case.

For `Cc1nnc(SCC2=C(C(=O)O)N3C(=O)[C@@H](NC(=O)Cn4cc(Cl)c(=O)c(Cl)c4)[C@H]3SC2)s1` [CEFAZEDONE], the AC50 in experiment [1], in experiment [2] and in experiment [3] was > 30 µM each time.

Consider `CO/N=C(\C(=O)N[C@@H]1C(=O)N2C(C(=O)[O-])=C(C[n+]3cccc4c3CCC4)CS[C@H]12)c1csc(N)n1` [CEFPIROME], for which the AC50 in experiment [1], in experiment [2], in experiment [4], in experiment [3], in experiment [5] and in experiment [6] was > 30 µM in each case. Moreover, the AC50 in experiment [7] and in experiment [8] was > 30 µM each time.

As for `Nc1ncnc(Nc2ccc(Cl)cc2)n1` [CHLORAZANIL], the half-maximal activity concentration (AC50) in experiment [1], in experiment [2] and in experiment [3] was > 30 µM in each case.

As for `CCC[C@@H]1C[C@@H](C(=O)N[C@@H]([C@H]2O[C@H](SC)[C@H](OP(=O)(O)O)[C@@H](O)[C@H]2O)[C@H](C)Cl)N(C)C1` [CLINDAMYCIN PHOSPHATE], the AC50 in experiment [1], in experiment [2] and in experiment [3] was > 30 µM throughout.

For `C[C@@H]1C[C@H]2[C@@H]3C[C@H](F)C4=CC(=O)C=C[C@]4(C)[C@@]3(Cl)[C@@H](O)C[C@]2(C)[C@H]1C(=O)COC(=O)C(C)(C)C` [CLOCORTOLONE PIVALATE], the AC50 in experiment [1], in experiment [2] and in experiment [3] was > 30 µM throughout.

Consider `O=P(O)(O)C(Cl)(Cl)P(=O)(O)O` [CLODRONIC ACID], for which the concentration at half-maximal activity (AC50) in experiment [1], in experiment [2] and in experiment [3] was > 30 µM each time.

For `CCOC(=O)c1ccc(OC(=O)CCCCCNC(=N)N)cc1` [GABEXATE], the concentration at half-maximal activity (AC50) in experiment [1], in experiment [2] and in experiment [3] was > 30 µM in each case.

In the case of `CCCCC/C=C\C/C=C\C/C=C\CCCCC(=O)O` [GAMOLENIC ACID], the concentration at half-maximal activity (AC50) in experiment [1], in experiment [2] and in experiment [3] was > 30 µM in each case.

On to `NC(=O)NCCC[C@H](N)C(=O)O` [L-CITRULLINE], for which the concentration at half-maximal activity (AC50) in experiment [1], in experiment [2] and in experiment [3] was > 30 µM each time.

Turning to `CC(=O)O[C@H]1C[C@H](O[C@H]2[C@@H](O)C[C@H](O[C@H]3[C@@H](O)C[C@H](O[C@H]4CC[C@@]5(C)[C@H](CC[C@@H]6[C@@H]5C[C@@H](O)[C@]5(C)[C@@H](C7=CC(=O)OC7)CC[C@]65O)C4)O[C@@H]3C)O[C@@H]2C)O[C@H](C)[C@H]1O[C@@H]1O[C@H](CO)[C@@H](O)[C@H](O)[C@H]1O` [LANATOSIDE C], the AC50 in experiment [1], in experiment [2] and in experiment [3] was > 30 µM each time.

For `Nc1nc(N)nc(Nc2ccc([As]3SCC(CO)S3)cc2)n1` (stereo unspecified) [MELARSOPROL], the values for the AC50 in experiment [1], in experiment [2] and in experiment [3] were > 30 µM, 22.5 µM and 21 µM, respectively.

As to `CO[C@H]1[C@@H](O)C[C@H](O[C@H]2[C@@H](O)C[C@H](O[C@H]3[C@@H](O)C[C@H](O[C@H]4CC[C@@]5(C)[C@H](CC[C@@H]6[C@@H]5C[C@@H](O)[C@]5(C)[C@@H](C7=CC(=O)OC7)CC[C@]65O)C4)O[C@@H]3C)O[C@@H]2C)O[C@@H]1C` [METILDIGOXIN], the AC50 in experiment [1], in experiment [2] and in experiment [3] was > 30 µM each time.

Take `CC1(C)S[C@@H]2[C@H](NC(=O)[C@H](NC(=O)N3CCN(S(C)(=O)=O)C3=O)c3ccccc3)C(=O)N2[C@H]1C(=O)O` [MEZLOCILLIN]: the half-maximal activity concentration (AC50) in experiment [1], in experiment [2] and in experiment [3] was > 30 µM each time.

As to `c1ccc2c(CC3=NCCN3)cccc2c1` [NAPHAZOLINE], the half-maximal activity concentration (AC50) in experiment [1], in experiment [2] and in experiment [3] was > 30 µM each time.

Turning to `C1CNCCN1` [PIPERAZINE], the AC50 in experiment [1], in experiment [2] and in experiment [3] was > 30 µM throughout.

With `O=C(NC(Cc1cc(=O)[nH]c2ccccc12)C(=O)O)c1ccc(Cl)cc1` (stereo unspecified) [REBAMIPIDE], the half-maximal activity concentration (AC50) in experiment [1], in experiment [2] and in experiment [3] was > 30 µM throughout.

`CCCCCCCCCCCCCCCCCC(=O)NCCCC[C@H](NC(=O)CC[C@@H](NC(=O)[C@H](C)NC(=O)[C@@H](C)O[C@H]1[C@H](O)[C@@H](CO)OC(O)[C@@H]1NC(C)=O)C(N)=O)C(=O)O` (stereo partly specified) [ROMURTIDE]: the results for the AC50 in experiment [1], in experiment [2] and in experiment [3] were > 30 µM, 6.71 µM and > 30 µM, respectively.

For the compound `CCOC(=O)[C@H](CCc1ccccc1)N[C@H]1CS[C@H](c2cccs2)CN(CC(=O)O)C1=O` [TEMOCAPRIL], the AC50 in experiment [1], in experiment [2] and in experiment [3] was > 30 µM in each case.
